According to ChEMBL document CHEMBL5385858, “Identification of novel Pyrrolo[2,3-d]Pyrimidine-based KRAS G12C inhibitors with anticancer effects” (Eur J Med Chem, 2023):
Calls of active or inactive are those of the source. No cut-off for these calls is given here.

How the values were obtained:
[1] = Volume of distribution at steady state in ICR mouse at 3 mg/kg, iv measured for 24 hrs by LC-MS/MS analysis; assay type: ADME, organism-based; settings: in vivo, read-out: Vdss
[2] = Toxicity in BALB/c-nu/nu mouse xenografted with human NCI-H358 cells assessed as morphological damage in spleen at 10 to 30 mg/kg, po qd treated for 20 days; assay type: organism-based; settings: in vivo, 480 h, dose 10-30 mg/kg, time 20 day
[3] = Toxicity in BALB/c-nu/nu mouse xenografted with human NCI-H358 cells assessed as histological change in heart at 10 to 30 mg/kg, po qd treated for 20 days by H and E staining based analysis; assay type: organism-based; settings: in vivo, 480 h, dose 10-30 mg/kg, time 20 day
NCI-H358 [4] = test: Induction of apoptosis in human NCI-H358 cells assessed as necrotic cells at 0.5 uM incubated for 24 hrs by Annexin V-FITC/PI staining based flow cytometry (reference value: 1.88 %); assay type: functional
NCI-H358 [5] = test: Induction of apoptosis in human NCI-H358 cells assessed as viable cells at 0.1 uM incubated for 24 hrs by Annexin V-FITC/PI staining based flow cytometry (reference value: 91.4 %); assay type: functional; settings: Homo sapiens, NCI-H358, read-out: Activity
NCI-H358 [6] = test: Antitumor activity in human NCI-H358 cells xenografted in BALB/c-nu/nu mouse assessed as tumor regression at 30 mg/kg, po qd treated for 20 days; assay type: functional, organism-based; settings: time 20.0 day
[7] = system: GTPase KRas (Homo sapiens), P01116 [G12C]; test: Inhibition of KRAS G12C mutant in human NCI-H358 cells assessed as decrease in AKT phosphorylation incubated for 2 to 72 hrs by Western blot analysis; assay type: cell-based; settings: time 2-72 hrs
Chain of GTPase KRas (Homo sapiens), P01116 [G12C] (P01116 whole entry G12C): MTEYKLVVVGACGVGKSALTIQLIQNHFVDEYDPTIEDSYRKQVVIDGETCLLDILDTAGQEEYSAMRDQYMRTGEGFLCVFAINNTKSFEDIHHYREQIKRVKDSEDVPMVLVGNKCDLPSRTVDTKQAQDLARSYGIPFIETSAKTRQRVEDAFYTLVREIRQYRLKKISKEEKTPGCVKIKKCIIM

[8] = AUC (0 to infinity) in ICR mouse at 3 mg/kg, iv measured for 24 hrs by LC-MS/MS analysis; assay type: ADME, organism-based; set-up: dose 3 mg/kg, time 24 hrs, route iv; settings: in vivo
NCI-H358 [9] = test: Induction of apoptosis in human NCI-H358 cells assessed as late apoptotic cells at 0.1 uM incubated for 24 hrs by Annexin V-FITC/PI staining based flow cytometry (reference value: 1.32 %); assay type: functional
NCI-H1975 = test: Antiproliferative activity against human NCI-H1975 cells harboring wild-type KRAS assessed as inhibition of cell proliferation incubated for 3 days by CCK8 assay; assay type: functional, cell-based; settings: NCI-H1975, 72 h
NCI-H358 [10] = test: Induction of apoptosis in human NCI-H358 cells assessed as necrotic cells at 0.3 uM incubated for 24 hrs by Annexin V-FITC/PI staining based flow cytometry (reference value: 1.88 %); assay type: functional
NCI-H358 [11] = test: Induction of apoptosis in human NCI-H358 cells assessed as viable cells at 0.5 uM incubated for 24 hrs by Annexin V-FITC/PI staining based flow cytometry (reference value: 91.4 %); assay type: functional; settings: read-out: Activity
[12] = Half life in ICR mouse at 3 mg/kg, iv measured for 24 hrs by LC-MS/MS analysis; assay type: ADME, organism-based; settings: in vivo
[13] = Toxicity in BALB/c-nu/nu mouse xenografted with human NCI-H358 cells assessed as histological change in kidney at 10 to 30 mg/kg, po qd treated for 20 days by H and E staining based analysis; assay type: organism-based; settings: in vivo, 480 h, dose 10-30 mg/kg, time 20 day
A549 = test: Antiproliferative activity against human A549 cells harboring KRAS G12S mutant assessed as inhibition of cell proliferation incubated for 3 days by CCK8 assay; assay type: functional, cell-based; settings: A549, 72 h
NCI-H358 [14] = test: In vivo inhibition of KRAS G12C mutant in human NCI-H358 cells xenografted in BALB/c-nu/nu mouse assessed as decrease in AKT phosphorylation at 10 to 30 mg/kg, po qd treated for 20 days by Western blot analysis; assay type: functional, organism-based; settings: dose 10-30 mg/kg, time 20.0 day
[15] = system: GTPase KRas (Homo sapiens), P01116 [G12C]; test: Inhibition of KRAS G12C mutant in human […] cells assessed as decrease in ERK phosphorylation at 5 to 20 uM incubated for 4 hrs by Western blot analysis; assay type: cell-based; settings: dose 5-20 µM
[16] = Toxicity in BALB/c-nu/nu mouse xenografted with human NCI-H358 cells assessed as histological change in liver at 10 to 30 mg/kg, po qd treated for 20 days by H and E staining based analysis; assay type: organism-based; settings: in vivo, 480 h, dose 10-30 mg/kg, time 20 day
[17] = Half life in ICR mouse at 30 mg/kg, po measured for 24 hrs by LC-MS/MS analysis; assay type: ADME, organism-based; settings: in vivo
[18] = Toxicity in BALB/c-nu/nu mouse xenografted with human NCI-H358 cells assessed as morphological damage in heart at 10 to 30 mg/kg, po qd treated for 20 days; assay type: organism-based; settings: in vivo, 480 h, dose 10-30 mg/kg, time 20 day
NCI-H358 [19] = test: Induction of apoptosis in human NCI-H358 cells assessed as necrotic cells at 0.1 uM incubated for 24 hrs by Annexin V-FITC/PI staining based flow cytometry (reference value: 1.88 %); assay type: functional
NCI-H358 [20] = test: Induction of apoptosis in human NCI-H358 cells assessed as early apoptotic cells at 0.3 uM incubated for 24 hrs by Annexin V-FITC/PI staining based flow cytometry (reference value: 5.4 %); assay type: functional
NCI-H358 [21] = test: Induction of apoptosis in human NCI-H358 cells assessed as early apoptotic cells at 0.1 uM incubated for 24 hrs by Annexin V-FITC/PI staining based flow cytometry (reference value: 5.4 %); assay type: functional
[22] = system: GTPase KRas (Homo sapiens), P01116 [G12C]; test: Inhibition of KRAS G12C mutant in human NCI-H358 cells assessed as decrease in ERK phosphorylation upto 5 uM by Western blot analysis; assay type: cell-based; settings: time 2-72 hrs, TDE = time-dependent effect
[23] = AUC (0 to t) in ICR mouse at 3 mg/kg, iv measured for 24 hrs by LC-MS/MS analysis; assay type: ADME, organism-based; set-up: dose 3 mg/kg, time 24 hrs, route iv; settings: in vivo
[24] = C0 in ICR mouse at 30 mg/kg, po measured for 24 hrs by LC-MS/MS analysis; assay type: ADME, organism-based; settings: in vivo
[25] = system: GTPase KRas (Homo sapiens), P01116 [G12C]; test: Inhibition of KRAS G12C mutant in human NCI-H358 cells assessed as decrease in ERK phosphorylation at 0.1 uM incubated for 4 to 24 hrs by Western blot analysis; assay type: cell-based; settings: time 4-24 hrs
NCI-H358 [26] = test: Induction of apoptosis in human NCI-H358 cells assessed as viable cells at 1 uM incubated for 24 hrs by Annexin V-FITC/PI staining based flow cytometry (reference value: 91.4 %); assay type: functional; settings: read-out: Activity
NCI-H358 [27] = test: In vivo inhibition of KRAS G12C mutant in human NCI-H358 cells xenografted in BALB/c-nu/nu mouse assessed as decrease in ERK phosphorylation at 10 to 30 mg/kg, po qd treated for 20 days by Western blot analysis; assay type: functional, organism-based; settings: dose 10-30 mg/kg, time 20.0 day
MIA PaCa-2 = test: Antiproliferative activity against human MIA PaCa-2 cells harboring KRAS G12C mutant assessed as inhibition of cell proliferation incubated for 3 days by CCK8 assay; assay type: functional, cell-based; settings: MIA PaCa-2, 72 h
[28] = Toxicity in BALB/c-nu/nu mouse xenografted with human NCI-H358 cells assessed as drug tolerance at 10 to 30 mg/kg, po qd treated for 20 days; assay type: organism-based; settings: in vivo, 480 h, dose 10-30 mg/kg, time 20 day
[29] = system: GTPase KRas (Homo sapiens), P01116 [G12C]; test: Inhibition of KRAS G12C mutant in human NCI-H358 cells assessed as decrease in ERK phosphorylation incubated for 2 to 72 hrs by Western blot analysis; assay type: cell-based; settings: time 2-72 hrs
NCI-H358 [30] = test: Antiproliferative activity against human NCI-H358 cells harboring siKRAS assessed as inhibition of cell proliferation; assay type: functional, cell-based

C=CC(=O)N1CCN(c2nc(OC[C@@]34CCCN3C[C@H](F)C4)nc3c2cc(-c2cccc4cccc(C)c24)n3C)C[C@@H]1CC#N
Vd [1]: 4.98 L/kg
Activity [2]: Non-Toxic
Activity [3]: Non-Toxic
Activity (NCI-H358 [4]): 0.8%
viability at 0.1 µM (NCI-H358 [5]): 84.6%
Activity (NCI-H358 [6]): Active
inhibition [7]: Dose-Dependent Effect
AUC(0-inf) [8]: 804 ng·h/mL
Activity (NCI-H358 [9]): 3.71%
IC50 (NCI-H1975): 7.91 µM
Activity (NCI-H358 [10]): 1.06%
viability at 0.5 µM (NCI-H358 [11]): 79%
half-life [12]: 0.93 h
Activity [13]: Non-Toxic
IC50 (A549): 29.9 µM
inhibition (NCI-H358 [14]): Active
inhibition [15]: Active
Activity [16]: Non-Toxic
half-life [17]: 4.79 h
Activity [18]: Non-Toxic
Activity (NCI-H358 [19]): 1.17%
Activity (NCI-H358 [20]): 11.8%
Activity (NCI-H358 [21]): 10.5%
inhibition [22]: Tde
AUC(0-t) at 24 h [23]: 801 ng·h/mL
C0 [24]: 316 ng/mL
inhibition [25]: Active
viability at 1 µM (NCI-H358 [26]): 71.2%
inhibition (NCI-H358 [27]): Active
IC50 (MIA PaCa-2): 0.87 µM
Activity [28]: Non-Toxic
inhibition [29]: Dose-Dependent Effect
inhibition (NCI-H358 [30]): Active
